ChEMBL document CHEMBL5365511, “Novel Compounds as TEAD Inhibitors for Treating Cancer” (ACS Med Chem Lett, 2023)
pIC50: −log10 of the molar value.

How the values were obtained:
[1] = target: Transcriptional enhancer factor TEF-4 (Homo sapiens, UniProt Q15562); assay: Displacement of biotinylated lipid pocket probes from His-tagged TEAD2 (unknown origin) preincubated for 4 hrs followed by lipid pocket probe addition and measured after 60 mins by TR-FRET assay
[2] = target: Transcriptional enhancer factor TEF-3 (Homo sapiens, UniProt Q15561); assay: Displacement of biotinylated lipid pocket probes from His-tagged TEAD4 (unknown origin) preincubated for 4 hrs followed by lipid pocket probe addition and measured after 60 mins by TR-FRET assay
[3] = target: Transcriptional enhancer factor TEF-1 (Homo sapiens, UniProt P28347); assay: Displacement of biotinylated lipid pocket probes from His-tagged TEAD1 (unknown origin) preincubated for 4 hrs followed by lipid pocket probe addition and measured after 60 mins by TR-FRET assay
[4] = target: Transcriptional enhancer factor TEF-5 (Homo sapiens, UniProt Q99594); assay: Displacement of biotinylated lipid pocket probes from His-tagged TEAD3 (unknown origin) preincubated for 4 hrs followed by lipid pocket probe addition and measured after 60 mins by TR-FRET assay
Transcriptional enhancer factor TEF-5, sequence (Q99594 whole entry): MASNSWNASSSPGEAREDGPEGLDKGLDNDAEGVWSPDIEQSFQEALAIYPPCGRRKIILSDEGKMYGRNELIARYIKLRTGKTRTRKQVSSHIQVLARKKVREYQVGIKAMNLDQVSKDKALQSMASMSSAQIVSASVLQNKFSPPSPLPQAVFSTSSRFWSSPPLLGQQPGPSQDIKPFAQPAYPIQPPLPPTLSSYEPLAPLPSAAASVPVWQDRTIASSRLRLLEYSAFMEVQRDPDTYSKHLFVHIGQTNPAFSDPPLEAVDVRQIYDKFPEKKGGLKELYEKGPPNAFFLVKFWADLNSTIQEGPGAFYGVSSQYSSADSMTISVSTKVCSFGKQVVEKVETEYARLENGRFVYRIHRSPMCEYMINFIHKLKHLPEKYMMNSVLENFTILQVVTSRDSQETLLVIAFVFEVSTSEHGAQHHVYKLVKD

Transcriptional enhancer factor TEF-4, sequence (Q15562 whole entry): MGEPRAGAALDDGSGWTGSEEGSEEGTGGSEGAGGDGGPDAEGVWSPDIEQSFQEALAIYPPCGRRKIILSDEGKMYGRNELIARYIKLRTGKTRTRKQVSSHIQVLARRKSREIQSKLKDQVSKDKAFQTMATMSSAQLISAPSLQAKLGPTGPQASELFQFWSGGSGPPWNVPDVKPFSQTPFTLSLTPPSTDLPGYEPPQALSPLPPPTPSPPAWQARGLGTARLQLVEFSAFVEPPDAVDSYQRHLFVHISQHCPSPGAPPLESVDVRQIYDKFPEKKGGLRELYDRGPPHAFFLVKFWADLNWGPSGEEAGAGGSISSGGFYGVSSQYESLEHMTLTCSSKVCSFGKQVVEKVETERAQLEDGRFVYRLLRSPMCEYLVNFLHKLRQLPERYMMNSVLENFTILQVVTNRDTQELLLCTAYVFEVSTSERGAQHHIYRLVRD
Transcriptional enhancer factor TEF-1, sequence (P28347 whole entry): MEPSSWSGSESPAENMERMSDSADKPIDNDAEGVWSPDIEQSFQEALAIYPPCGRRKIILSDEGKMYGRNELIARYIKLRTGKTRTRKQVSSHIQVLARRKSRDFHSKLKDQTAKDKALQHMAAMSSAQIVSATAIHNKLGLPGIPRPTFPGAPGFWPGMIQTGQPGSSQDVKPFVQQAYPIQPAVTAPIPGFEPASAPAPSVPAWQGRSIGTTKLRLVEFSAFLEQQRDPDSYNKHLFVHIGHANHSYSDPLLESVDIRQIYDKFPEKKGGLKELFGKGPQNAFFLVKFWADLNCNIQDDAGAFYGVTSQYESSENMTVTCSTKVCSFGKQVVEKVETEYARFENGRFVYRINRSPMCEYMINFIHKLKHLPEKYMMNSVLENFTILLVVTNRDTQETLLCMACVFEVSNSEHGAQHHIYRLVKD
Transcriptional enhancer factor TEF-3, sequence (Q15561 whole entry): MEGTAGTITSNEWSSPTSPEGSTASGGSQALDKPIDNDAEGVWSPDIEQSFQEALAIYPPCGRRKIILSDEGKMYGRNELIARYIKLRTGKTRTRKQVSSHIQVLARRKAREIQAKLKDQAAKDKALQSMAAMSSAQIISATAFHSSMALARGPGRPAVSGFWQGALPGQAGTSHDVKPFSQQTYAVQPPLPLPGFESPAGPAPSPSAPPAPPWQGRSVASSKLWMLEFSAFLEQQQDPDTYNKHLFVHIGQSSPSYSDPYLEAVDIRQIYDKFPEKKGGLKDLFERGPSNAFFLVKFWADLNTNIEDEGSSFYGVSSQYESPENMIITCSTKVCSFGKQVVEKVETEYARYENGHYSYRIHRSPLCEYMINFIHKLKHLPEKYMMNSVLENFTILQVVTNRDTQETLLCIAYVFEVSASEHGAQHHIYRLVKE

pIC50 [1]	pIC50 [2]	pIC50 [3]	pIC50 [4]	SMILES
8.40	8.70			Cn1cnc2c(-c3ccc(OC(F)(F)F)cc3)nc(C3CN(C(=O)C4=CCC4)C3)nc21
8.22	8.52	8.40	8.15	C=CC(=O)N(C)Cc1cc(-c2ccc(OC(F)(F)F)cc2)c2c(c1CO)CCO2
	8.52	8.22		C=CC(=O)NCc1cc(-c2ccc(OC(F)(F)F)cc2)c2ncn(C)c2c1C#CCO
8.40	8.70	8.52	8.52	C=CC(=O)N1CC(c2nc(-c3ccc(OC(F)(F)F)cc3)c3ncsc3n2)C1
